Test results reported in US20220396569A1 (Carmot Therapeutics, Inc., priority 2021, published 2022).

Each compound was assayed against T1, human GLP-1 receptor (Homo sapiens, UniProt P43220) (assay: GLP-1R cAMP Assay (HitHunter cAMP accumulation)). Settings: cAMP accumulation, CHO cells stably overexpressing human GLP-1 receptor, 30 min treatment; read-out: EC50.
T1 construct: expressed in transfected cells
T1 sequence (P43220 24-463): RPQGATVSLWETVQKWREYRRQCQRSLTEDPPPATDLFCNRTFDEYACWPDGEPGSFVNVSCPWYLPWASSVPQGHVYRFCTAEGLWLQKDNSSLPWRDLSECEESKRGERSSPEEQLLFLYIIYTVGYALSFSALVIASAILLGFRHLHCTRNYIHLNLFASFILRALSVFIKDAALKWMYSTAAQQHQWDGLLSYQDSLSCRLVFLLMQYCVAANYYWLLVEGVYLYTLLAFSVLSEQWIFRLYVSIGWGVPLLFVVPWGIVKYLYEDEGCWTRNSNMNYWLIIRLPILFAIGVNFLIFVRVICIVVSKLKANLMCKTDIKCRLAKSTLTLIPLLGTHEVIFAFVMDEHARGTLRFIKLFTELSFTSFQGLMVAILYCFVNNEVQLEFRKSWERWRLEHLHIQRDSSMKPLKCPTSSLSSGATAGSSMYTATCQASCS
Assay type: cell-based
Method: cAMP accumulation was measured in Chinese hamster ovary (CHO) cells stably overexpressing the human GLP-1 receptor using the HitHunter cAMP Assay for Small Molecules Kit (Eurofins). Briefly, cells were grown in Ham's F12 Nutrient Mix with 10% FBS, and lifted with Cell Dissociation Buffer, Enzyme free, PBS based (ThermoFisher). Cells were pelleted, and resuspended in Hank's buffered saline solution with 10 mM HEPES, and 625 μM 3-isobutyl-1-methylxanthine. The anti-cAMP antibody reagent was then added to cells at a 1:2 ratio and 5 μL of mixture was seeded in 384-well small volume white assay plates, at 10,000 cells/well. Cells were then treated with 50 nL compound using an ECHO 550 acoustic dispenser (Labcyte) in a 20-point dose response format in triplicate for 30 min. Cells were then lysed, and detection reagents added according to the manufacturer's protocol. After overnight incubation, luminescence was measured using a Perkin Elmer Envision plate reader. Dose response curves were analyzed using GraphPad Prism 9.0. […]
`N#Cc1ccc(OCc2nccc(Oc3ccc(Cc4nc5c(F)cc(C(=O)O)cc5n4C[C@@H]4CCO4)cc3F)n2)c(F)c1` [Compound 539, (S)-2-(4-((2-((4-cyano-2-fluorophenoxy)methyl)pyrimidin-4-yl)oxy)-3-fluorobenzyl)-4-fluoro-1-(oxetan-2-ylmethyl)-1H-benzo[d]imidazole-6-carboxylic acid] was tested, and the EC50 was under 50 nM. For `N#Cc1ccc(OCc2nc(C34CC3CN(Cc3nc5c(F)cc(C(=O)O)cc5n3C[C@@H]3CCO3)C4)ccc2F)c(F)c1` (stereo partly drawn) [Compound 523, 2-[(1-{6-[(4-cyano-2-fluorophenoxy)methyl]-5-fluoropyridin-2-yl}-3-azabicyclo[3.1.0]hexan-3-yl)methyl]-4-fluoro-1-{[(2S)-oxetan-2-yl]methyl}-1H-1,3-benzodiazole-6-carboxylic acid], the EC50 was under 50 nM. `N#Cc1ccc(OCc2cccc(C3=CCN(Cc4nc5ccc(C(=O)O)cc5n4C[C@@H]4CCO4)C3)c2)c(F)c1` [Compound 400, 2-[(3-{3-[(4-cyano-2-fluorophenoxy)methyl]phenyl}-2,5-dihydro-1H-pyrrol-1-yl)methyl]-1-{[(2S)-oxetan-2-yl]methyl}-1H-1,3-benzodiazole-6-carboxylic acid] showed an EC50 of under 50 nM. In the case of `O=C(O)c1ccc2nc(CN3CC=C(c4cc(COc5ccc(Cl)cc5F)ccc4F)C3)n(C[C@@H]3CCO3)c2c1` [Compound 417, 2-[(3-{5-[(4-chloro-2-fluorophenoxy)methyl]-2-fluorophenyl}-2,5-dihydro-1H-pyrrol-1-yl)methyl]-1-{[(2S)-oxetan-2-yl]methyl}-1H-1,3-benzodiazole-6-carboxylic acid], the EC50 is reported as under 50 nM. With `O=C(O)c1cc(F)c2nc(Cc3ccc(Oc4ccnc(COc5ccc(Cl)cc5F)c4)c(F)c3)n(C[C@@H]3CCO3)c2c1` [Example 471, (S)-2-(4-((2-((4-Chloro-2-fluorophenoxy)methyl)pyridin-4-yl)oxy)-3-fluorobenzyl)-4-fluoro-1-(oxetan-2-ylmethyl)-1H-benzo[d]imidazole-6-carboxylic acid] the EC50 was under 50 nM. With `CCn1cncc1Cn1c(CN2CC(=Cc3cccc(COc4ccc(Cl)cc4Cl)c3)C2)nc2ccc(C(=O)O)cc21` [Compound 196] the EC50 was under 50 nM. Compound `O=C(O)c1ccc2nc(CN3CC(Cc4ccnc(COc5ccc(Cl)cc5Cl)c4)C3)n(C[C@@H]3CCO3)c2c1` [Example 177, (S)-2-((3-((2-((2,4-Dichlorophenoxy)methyl)pyridin-4-yl)methyl)azetidin-1-yl)methyl)-1-(oxetan-2-ylmethyl)-1H-benzo[d]imidazole-6-carboxylic acid] has an EC50 of under 50 nM. Compound `N#Cc1ccc(OCc2nc(C3=CCN(Cc4nc5c(F)cc(C(=O)O)cc5n4CC4(CC(N)=O)CC4)C3)ccc2F)c(F)c1` [Compound 425, 1-{[1-(carbamoylmethyl)cyclopropyl]methyl}-2-[(3-{6-[(4-cyano-2-fluorophenoxy)methyl]-5-fluoropyridin-2-yl}-2,5-dihydro-1H-pyrrol-1-yl)methyl]-4-fluoro-1H-1,3-benzodiazole-6-carboxylic acid] has an EC50 of 50 to 500 nM. Compound `N#Cc1ccc(OCc2nccc(O[C@H]3C[C@@H](Cc4nc5ccc(C(=O)O)cc5n4C[C@@H]4CCO4)C3)n2)c(F)c1` [Compound 551] has an EC50 of under 50 nM. Compound `N#Cc1ccc(OCc2nc(C3C[C@H](CF)N(Cc4nc5ccc(C(=O)O)cc5n4C[C@@H]4CCO4)C3)ccc2F)c(F)c1` (mixture of isomers) [Compound 528, 2-(((2R)-4-(6-((4-Cyano-2-fluorophenoxy)methyl)-5-fluoropyridin-2-yl)-2-(fluoromethyl)pyrrolidin-1-yl)methyl)-1-(((S)-oxetan-2-yl)methyl)-1H-benzo[d]imidazole-6-carboxylic acid] has an EC50 of under 50 nM. `O=C(O)c1ccc2nc(CN3CCC(c4ccc(F)c(COc5ccc(Cl)cc5F)n4)C3)n(C[C@@H]3CCO3)c2c1` (stereo partly drawn) [Compound 409, 2-[(3-{6-[(4-chloro-2-fluorophenoxy)methyl]-5-fluoropyridin-2-yl}pyrrolidin-1-yl)methyl]-1-{[(2S)-oxetan-2-yl]methyl}-1H-1,3-benzodiazole-6-carboxylic acid] showed an EC50 of under 50 nM. With `O=C(O)c1ccc2nc(CN3CC=C(c4cnc(COc5ccc(Cl)cc5Cl)o4)C3)n(C[C@@H]3CCO3)c2c1` [Example 474, (S)-2-((3-(2-((2,4-Dichlorophenoxy)methyl)oxazol-5-yl)-2,5-dihydro-1H-pyrrol-1-yl)methyl)-1-(oxetan-2-ylmethyl)-1H-benzo[d]imidazole-6-carboxylic acid] the EC50 was under 50 nM. `N#Cc1ccc(OCc2cccc(O[C@H]3CCN(Cc4nc5ccc(C(=O)O)cc5n4C[C@@H]4CCO4)C3)c2)c(F)c1` [Compound 350, 2-{[(3S)-3-{3-[(4-cyano-2-fluorophenoxy)methyl]phenoxy}pyrrolidin-1-yl]methyl}-1-{[(2S)-oxetan-2-yl]methyl}-1H-1,3-benzodiazole-6-carboxylic acid] showed an EC50 of under 50 nM. Work on `CCn1cncc1Cn1c(CN2CCC(Cn3ccc(COc4ccc(Cl)cc4C#N)n3)CC2)nc2ccc(C(=O)O)cc21` [Compound 282, 2-{[4-({3-[(4-chloro-2-cyanophenoxy)methyl]-1H-pyrazol-1-yl}methyl)piperidin-1-yl]methyl}-1-[(1-ethyl-1H-imidazol-5-yl)methyl]-1H-1,3-benzodiazole-6-carboxylic acid] yielded an EC50 of under 50 nM. Work on `CCn1cncc1Cn1c(CN2CCC(Cn3ccc(COc4ccc(Cl)cc4Cl)n3)CC2)nc2ccc(C(=O)O)cc21` [Example 281, 2-((4-((3-((2,4-Dichlorophenoxy)methyl)-1H-pyrazol-1-yl)methyl)piperidin-1-yl)methyl)-1-((1-ethyl-1H-imidazol-5-yl)methyl)-1H-benzo[d]imidazole-6-carboxylic acid] yielded an EC50 of under 50 nM. For `N#Cc1ccc(OCc2cc(Oc3ccc(Cc4nc5c(F)cc(C(=O)O)cc5n4C[C@@H]4CCO4)c(C#N)c3)ccn2)c(F)c1` [Compound 543, 2-{[2-cyano-4-({2-[(4-cyano-2-fluorophenoxy)methyl]pyridin-4-yl}oxy)phenyl]methyl}-4-fluoro-1-{[(2S)-oxetan-2-yl]methyl}-1H-1,3-benzodiazole-6-carboxylic acid], the EC50 was under 50 nM. Compound `N#CCC1(Cn2c(Cc3ccc(Oc4ccnc(COc5ccc(C#N)cc5F)n4)cc3F)nc3ccc(C(=O)O)cc32)CC1` [Compound 468, 2-{[4-({2-[(4-cyano-2-fluorophenoxy)methyl]pyrimidin-4-yl}oxy)-2-fluorophenyl]methyl}-1-{[1-(cyanomethyl)cyclopropyl]methyl}-1H-1,3-benzodiazole-6-carboxylic acid] has an EC50 of under 50 nM. With `O=C(O)c1ccc2nc(CN3CC=C(c4nc(COc5ccc(Cl)cc5F)ccc4F)C3)n(C[C@@H]3CCO3)c2c1` [Compound 436] the EC50 was under 50 nM. Work on `O=C(O)c1ccc2nc(CN3CC=C(c4cccc(COc5ccc(Cl)cc5Cl)c4)C3)n(C[C@@H]3CCO3)c2c1` [Compound 401, 2-[(3-{3-[(2,4-dichlorophenoxy)methyl]phenyl}-2,5-dihydro-1H-pyrrol-1-yl)methyl]-1-{[(2S)-oxetan-2-yl]methyl}-1H-1,3-benzodiazole-6-carboxylic acid] yielded an EC50 of under 50 nM. In the case of `O=C(O)c1ccc2nc(CN3CC=C(c4cccc(COc5ccc(Cl)cc5Cl)n4)C3)n(C[C@@H]3CCO3)c2c1` [Example 384, (S)-2-((3-(6-((2,4-Dichlorophenoxy)methyl)pyridin-2-yl)-2,5-dihydro-1H-pyrrol-1-yl)methyl)-1-(oxetan-2-ylmethyl)-1H-benzo[d]imidazole-6-carboxylic acid], the EC50 is reported as under 50 nM. With `O=C(O)c1ccc2nc(CN3CCC(c4cc(COc5ccc(Cl)cc5F)ccn4)C3)n(C[C@@H]3CCO3)c2c1` (stereo partly drawn) [Example 397, 2-((3-(4-((4-Chloro-2-fluorophenoxy)methyl)pyridin-2-yl)pyrrolidin-1-yl)methyl)-1-(((S)-oxetan-2-yl)methyl)-1H-benzo[d]imidazole-6-carboxylic acid] the EC50 was under 50 nM. Compound `O=C(O)c1ccc2nc(Cc3ccc(Oc4ccnc(COc5ccc(Cl)cc5F)c4)cc3F)n(C[C@@H]3CCO3)c2c1` [Compound 466, 2-{[4-({2-[(4-chloro-2-fluorophenoxy)methyl]pyridin-4-yl}oxy)-2-fluorophenyl]methyl}-1-{[(2S)-oxetan-2-yl]methyl}-1H-1,3-bcnzodiazole-6-carboxylic acid] has an EC50 of under 50 nM. In the case of `N#Cc1ccc(OCc2nccc(Oc3ccc(Cc4nc5c(F)cc(C(=O)O)cc5n4C[C@@H]4CCO4)c(F)c3)n2)c(F)c1` [Compound 467], the EC50 is reported as under 50 nM. With `N#Cc1ccc(OCc2nc([C@]34C[C@H]3CN(Cc3nc5c(F)cc(C(=O)O)cc5n3C[C@@H]3CCO3)C4)ccc2F)c(F)c1` [Compound 532, 2-{[(lR,5R)-1-{6-[(4-cyano-2-fluorophenoxy)methyl]-5-fluoropyridin-2-yl}-3-azabicyclo[3.1.0]hexan-3-yl]methyl}-4-fluoro-1-{[(2S)-oxetan-2-yl]methyl}-1H-1,3-benzodiazole-6-carboxylic acid] the EC50 was under 50 nM. `N#Cc1ccc(OCc2nc(C3=CCN(Cc4nc5ccc(C(=O)O)cc5n4C[C@@H]4CCO4)C3)ccc2F)c(F)c1` [Compound 408, 2-[(3-{6-[(4-cyano-2-fluorophenoxy)methyl]-5-fluoropyridin-2-yl}-2,5-dihydro-1H-pyrrol-1-yl)methyl]-1-{[(2S)-oxetan-2-yl]methyl}-1H-1,3-benzodiazole-6-carboxylic acid] gave an EC50 of under 50 nM.
